Measurements reported in patent publication US20250042886A1, “BIS(HETERO)ARYL THIOETHER OXADIAZINES AS FUNGICIDAL COMPOUNDS” (Bayer Aktiengesellschaft, priority 2021, published 2025).

What was measured:
Botrytis cinerea [1] = assay: Botrytis cinerea in vitro cell test; format: cell-based; details: 144 h, liquid culture, 6 days incubation, read-out: efficacy (inhibition of fungal growth); for inhibition at 50 µM: 50 μMol/l of active ingredient; for inhibition at 20 ppm: 20 ppm of active ingredient
How it was run: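 Compounds from DMSO stocks added at a range of concentrations to a defined mineral-salt/sucrose liquid medium inoculated with B. cinerea spores. After 6 days' incubation, mycelium growth was read by absorbance; inhibition of germination and growth was calculated against fungicide-free control wells.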

Fusarium culmorum = Fusarium culmorum in vitro cell test; format: cell-based; details: 120 h, liquid culture, 5 days incubation, read-out: efficacy (inhibition of fungal growth); for inhibition at 50 µM: 50 μMol/l of active ingredient
How it was run: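 Spores in liquid mineral-salts/saccharose medium exposed to compounds (DMSO ≤1% final) for 5 days. Mycelium growth measured spectrometrically, with inhibition derived from absorbance relative to fungicide-free control wells.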

Pyricularia oryzae = assay: microbe, parasite or virus in culture; format: cell-based; details: 120 h; for inhibition at 50 µM: read-out: efficacy (inhibition of fungal growth), 50 μMol/l of active ingredient, liquid culture, 5 days incubation; for inhibition at 20 ppm: read-out: efficacy (inhibition of fungal growth), 20 ppm of active ingredient, liquid culture, 5 days incubation
[2] = Measurement of Log P values by HPLC on reversed phase columns (EEC directive 79/831 Annex V.A8); format: physicochemical; details: Table 1, compounds of formula (I); method [a]: LC-UV, acidic range, 0.1% formic acid in water and acetonitrile
Pyrenophora teres = Pyrenophora teres in vitro cell test; format: cell-based; details: 144 h, liquid culture, 6 days incubation, read-out: efficacy (inhibition of fungal growth); for inhibition at 50 µM: 50 μMol/l of active ingredient; for inhibition at 20 ppm: 20 ppm of active ingredient
How it was run: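 Compounds in DMSO were added to P. teres spore suspensions in glucose/peptone/yeast-extract liquid medium, testing inhibition of spore germination and mycelium growth. After 6 days, mycelium growth was read by absorbance. Inhibition was calculated relative to fungicide-free control wells.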

Alternaria alternata = Alternaria alternata in vitro cell test; format: cell-based; details: 120 h, liquid culture, 5 days incubation, read-out: efficacy (inhibition of fungal growth); for inhibition at 50 µM: 50 μMol/l of active ingredient
Experimental: B-5. Alternaria alternata In Vitro Cell Test • Solvent: DMSO • Culture medium: 14.6 g anhydrous D-glucose (VWR), 7.1 g Mycological Peptone (Oxoid), 1.4 g granulated Yeast Extract (Merck), QSP 1 liter • Inoculum: spores suspension Fungicides were solubilized in DMSO and the solution used to prepare the required range of concentrations. […] A spore suspension of A. alternata was prepared and diluted to the desired spore density. Fungicides were evaluated for their ability to inhibit spore germination and mycelium growth in liquid culture assay. The compounds were added in the desired concentration to the culture medium with spores. After 5 days incubation, fungi-toxicity of compounds was determined by spectrometric measurement of mycelium growth. Inhibition of fungal growth was determined by comparing the absorbance values in wells containing the fungicides with the absorbance in control wells without fungicides.

Alternaria brassicae = assay: In vivo preventive test on Alternaria brassicae (leaf spot on radish or cabbage); details: 500 ppm of active ingredient, sprayed on young radish or cabbage plants 24 h before inoculation, evaluated 3 to 4 days after inoculation, read-out: efficacy
Experimental: (§1) B-1. […] The active ingredients were made soluble and homogenized in a mixture of Dimethyl sulfoxide/Acetone//Tween® 80 and then diluted in water to the desired concentration. The young plants of radish or cabbage were treated by spraying the active ingredient prepared as described above. Control plants were treated only with an aqueous solution of Acetone/Dimethyl sulfoxide/Tween® 80. After 24 hours, the plants were contaminated by spraying the leaves with an aqueous suspension of Alternaria brassicae spores.

[3] = system: Colletotrichum lindemuthianum; assay: In vivo preventive test on Colletotrichum lindemuthianum (leaf spot on bean); details: 168 h, 500 ppm of active ingredient, sprayed on young bean plants 24 h before inoculation, evaluated 7 days after inoculation, read-out: efficacy
Experimental: as §1, with “B-4.” for “B-1.”, “bean” for “radish or cabbage”, “Colletotrichum lindemuthianum” for “Alternaria brassicae”

Botrytis cinerea [4] = assay: In vivo preventive test on Botrytis cinerea (grey mould); details: 500 ppm of active ingredient, sprayed on young gherkin or cabbage plants 24 h before inoculation, evaluated 4 to 5 days after inoculation, read-out: efficacy
How it was run: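 Compounds in DMSO/acetone/Tween 80 were diluted in water and sprayed onto young gherkin or cabbage plants; controls got solvent only. After 24 h, leaves were sprayed with an aqueous Botrytis cinerea spore suspension.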

[5] = system: Colletotrichum lindemuthianum; assay: Colletotrichum lindemuthianum in vitro cell test; format: cell-based; details: 144 h, liquid culture, 6 days incubation, read-out: efficacy (inhibition of fungal growth); for inhibition at 50 µM: 50 μMol/l of active ingredient; for inhibition at 20 ppm: 20 ppm of active ingredient
How it was run: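 C. lindemuthianum spores in liquid glucose–peptone–yeast extract medium were exposed to compounds dissolved in DMSO. After 6 days, mycelial growth was measured by absorbance, and inhibition was calculated against compound-free control wells.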

Septoria tritici = Septoria tritici in vitro cell test; format: cell-based; details: Zymoseptoria tritici, 168 h; 20 ppm of active ingredient; liquid culture, 7 days incubation; read-out: efficacy (inhibition of fungal growth)
Experimental: B-11. Septoria tritici In Vitro Cell Test • Solvent: DMSO • Culture medium: 1 g KH2PO4 (VWR), 1 g K2HPO4 (VWR), 0.5 g Urea (VWR), 3 g KNO3 (Prolabo), 10 g saccharose (VWR), 0.5 g MgSO4, 7H2O (Sigma), 0.07 g CaCl2, 2H2O (Prolabo), 0.2 mg MnSO4, H2O (Sigma), 0.6 mg CuSO4, 5H2O (Sigma), 7.9 mg ZnSO4, 7H2O (Sigma), 0.1 mg H3BO3 (Merck), 0.14 mg NaMoO4, 2H2O (Sigma), 2 mg thiamine (Sigma), 0.1 mg biotine (VWR), 4 mg FeSO4, 7H2O (Sigma), QSP 1 liter • Inoculum: spore suspension Fungicides were solubilized in DMSO and the solution used to prepare the required range of concentrations. […] A spore suspension of S. tritici was prepared and diluted to the desired spore density. Fungicides were evaluated for their ability to inhibit spore germination and mycelium growth in liquid culture assay. The compounds were added in the desired concentration to the culture medium with spores. […] Inhibition of fungal growth was determined by comparing the absorbance values in wells containing the fungicides with the absorbance in control wells without fungicides.

| Structure (SMILES) | inhibition at 50 µM (Botrytis cinerea [1]) [%] | inhibition at 50 µM (Fusarium culmorum) [%] | inhibition at 50 µM (Pyricularia oryzae) [%] | chromatographic logP [2] | inhibition at 50 µM (Pyrenophora teres) [%] | inhibition at 50 µM (Alternaria alternata) [%] | pest or weed control at 500 ppm (Alternaria brassicae) [%] | pest or weed control at 500 ppm [3] [%] | pest or weed control at 500 ppm (Botrytis cinerea [4]) [%] | inhibition at 50 µM [5] [%] | inhibition at 20 ppm (Botrytis cinerea [1]) [%] | inhibition at 20 ppm (Septoria tritici) [%] | inhibition at 20 ppm (Pyrenophora teres) [%] | inhibition at 20 ppm [5] [%] | inhibition at 20 ppm (Fusarium culmorum; 20 ppm of active ingredient) [%] | inhibition at 20 ppm (Pyricularia oryzae) [%] | inhibition at 20 ppm (Alternaria alternata; 20 ppm of active ingredient) [%] |
| --- | --- | --- | --- | --- | --- | --- | --- | --- | --- | --- | --- | --- | --- | --- | --- | --- | --- |
| Cc1ccc([C@H]2CON=C(c3c(Sc4cccc(F)c4)nnc4ccccc34)N2)s1 (racemic) [Compound I-042] | 90 to 100 | 90 to 100 | 90 to 100 | 3.27 | 90 to 100 | 90 to 100 | 90 to 100 | 70 to 79 | 90 to 100 | 90 to 100 | – | – | – | – | – | – | – |
| COc1cccc(Sc2cnc3ccccc3c2C2=NOC[C@H](Cc3ccc(C)cc3C)N2)c1 (racemic) [Compound I-012] | – | – | – | 4.06 | – | – | – | – | – | – | 90 to 100 | 70 to 79 | 90 to 100 | 90 to 100 | – | – | – |
| Cc1ccc([C@H]2CON=C(c3c(Sc4cccc(Cl)c4)nnc4ccccc34)N2)s1 (racemic) [Compound I-135] | 90 to 100 | 90 to 100 | 90 to 100 | 3.61 | 90 to 100 | 90 to 100 | 90 to 100 | 90 to 100 | 90 to 100 | 90 to 100 | – | – | – | – | – | – | – |
| Cc1ccc(C[C@H]2CON=C(c3c(Sc4cccc(Cl)c4)cnc4ccccc34)N2)c(C)c1 (racemic) [Compound I-024] | – | – | – | 4.46 | – | – | – | – | – | – | 90 to 100 | 90 to 100 | 90 to 100 | 90 to 100 | 90 to 100 | 90 to 100 | 90 to 100 |
| Cc1cccc(Sc2nnc(C)c(C)c2C2=NOCC(c3ccc(C)s3)N2)c1 (racemic) [Compound I-095, (5RS)-3-[5,6-dimethyl-3-(m-tolylsulfanyl)pyridazin-4-yl]-5-(5-methyl-2-thienyl)-5,6-dihydro-4H-1,2,4-oxadiazine] | 90 to 100 | 70 to 79 | 70 to 79 | 2.99 | – | – | 90 to 100 | 70 to 79 | 90 to 100 | 90 to 100 | – | – | – | – | – | – | – |
| Cc1ccc([C@@H]2CON=C(c3c(Sc4cccc(C(F)(F)F)c4)nnc(C)c3C)N2)s1 (racemic) [Compound I-044] | 90 to 100 | – | 80 to 89 | 3.36 | 90 to 100 | 70 to 79 | – | 90 to 100 | 90 to 100 | 90 to 100 | – | – | – | – | – | – | – |
| Cc1cccc(Sc2nnc3ccccc3c2C2=NOC[C@H](c3ccc(C)s3)N2)c1 (racemic) [Compound I-062] | 90 to 100 | 90 to 100 | 80 to 89 | 3.47 | 90 to 100 | 90 to 100 | 90 to 100 | 90 to 100 | 90 to 100 | 90 to 100 | – | – | – | – | – | – | – |
| Cc1ccc([C@H]2CON=C(c3c(Sc4cccc(C(F)(F)F)c4)nnc4ccccc34)N2)s1 (racemic) [Compound I-109] | 90 to 100 | 80 to 89 | 70 to 79 | 3.81 | 90 to 100 | 90 to 100 | 90 to 100 | 90 to 100 | 90 to 100 | 90 to 100 | – | – | – | – | – | – | – |
| Cc1ccc([C@H]2CON=C(c3c(Sc4cccc(Cl)c4F)nnc4ccccc34)N2)s1 (racemic) [Compound I-108] | 90 to 100 | 90 to 100 | 90 to 100 | 3.68 | 90 to 100 | 90 to 100 | 90 to 100 | 90 to 100 | 90 to 100 | 90 to 100 | – | – | – | – | – | – | – |
| Cc1cc([C@H]2CON=C(c3c(Sc4ccccc4)nnc(C)c3C)N2)c(C)s1 (racemic) [Compound I-069] | 90 to 100 | 90 to 100 | 80 to 89 | 3.03 | – | 80 to 89 | 80 to 89 | 70 to 79 | 90 to 100 | 90 to 100 | – | – | – | – | – | – | – |
| Cc1cccc(Sc2nnc(C)c(C)c2C2=NOC[C@H](c3cc(C)sc3C)N2)c1 (racemic) [Compound I-078] | 90 to 100 | 80 to 89 | 80 to 89 | 3.33 | 90 to 100 | 80 to 89 | 90 to 100 | 90 to 100 | 90 to 100 | 90 to 100 | – | – | – | – | – | – | – |
| Cc1cccc(Sc2nnc3ccccc3c2C2=NOC[C@H](c3ccc(C)s3)N2)n1 (racemic) [Compound I-066] | 90 to 100 | 70 to 79 | 70 to 79 | 2.69 | – | – | 80 to 89 | 70 to 79 | 90 to 100 | 90 to 100 | – | – | – | – | – | – | – |
| FC(F)(F)c1cccc(Sc2nnc(Cl)cc2C2=NOC[C@H](Cc3ccc(Cl)cc3Cl)N2)c1 (racemic) [Compound I-016] | – | – | – | 4.86 | – | – | – | – | – | – | 90 to 100 | 70 to 79 | 90 to 100 | 90 to 100 | – | 80 to 89 | – |
| COc1cccc(Sc2nnc(C)c(C)c2C2=NOC[C@@H](c3cc(C)sc3C)N2)c1 (racemic) [Compound I-079] | 90 to 100 | 90 to 100 | 70 to 79 | 3.11 | 80 to 89 | 70 to 79 | – | 80 to 89 | 90 to 100 | 90 to 100 | – | – | – | – | – | – | – |
| Cc1ccc(C[C@@H]2CON=C(c3cc(Cl)nnc3S(=O)(=O)c3ccc(C(F)(F)F)cc3)N2)c(C)c1 (racemic) [Compound I-018] | – | – | – | 4.28 | – | – | – | – | – | – | – | 90 to 100 | – | 80 to 89 | – | 90 to 100 | – |
